Literature values as cited in patent US20030162803A1, “Anhydrovinblastine for the treatment of cancer” (priority 1997, published 2003).

Conditions: single agent; cited from earlier work

CCC1=C[C@@H]2CN(C1)Cc1c([nH]c3ccccc13)[C@@](C(=O)OC)(c1cc3c(cc1OC)N(C)[C@H]1[C@@](O)(C(=O)OC)[C@H](OC(C)=O)[C@]4(CC)C=CCN5CC[C@]31[C@@H]54)C2 [Navelbine, 3′,4′-didehydro-4′-deoxy-C′-norvincaleukoblastine-di-L-tartrate]
mild to moderate peripheral neuropathy (paresthesia and hypesthesia), frequency: 10 % of patients
